Source: US20220073471A1 (JIANGSU HENGRUI MEDICINE CO., LTD., priority 2019, published 2022)

Target: T1, Nav1.8 ion channel stably expressed on HEK293 cells (Homo sapiens, UniProt Q9Y5Y9)
T1 construct: expressed in transfected cells; host or cells: HEK293
Assay: Inhibitory activity on Nav1.8, manual patch clamp
Type: cell-based
Settings: resting, clamped at -80 mV, 1 μM TTX, read-out: IC50 on inhibiting the Nav1.8 channel activity
Source text: The purpose of the experiment is to investigate the effect of the compounds on Nav1.8 ion channel in an in vitro experiment, wherein the Nav1.8 ion channel is stably expressed on HEK293 cells. After the Nav1.8 current becomes stable, the Nav1.8 currents before and after the administration of the compound are compared so as to obtain the effect of the compound on the Nav1.8 ion channel.
Except for NaOH and KOH used for acid titration and base titration, all the compounds used for formulating the extracellular fluid and intracellular fluid were purchased from Sigma (St. Louis, Mo.). Extracellular fluid (mM): NaCl, 137; KCl, 4; CaCl2), 1.8; MgCl2, 1; HEPES, 10; glucose, 10; pH 7.4 (NaOH titration). Intracellular fluid (mM): aspartic acid, 140; MgCl2, 2; EGTA, 11; HEPES, 10; pH 7.2 (CsOH titration). All solutions of test compound and control compound contained 1 μM TTX.
The test compound was dissolved in dimethyl sulfoxide (DMSO) at a stock concentration of 9 mM. The stock solution of the test compound was dissolved in the extracellular fluid on the day of the test and formulated into the required concentration.
1) The compound was formulated into solutions with specified concentrations, the solutions were added to the pipelines respectively in order from low to high concentration, and the pipelines were marked.
2) The cell was transferred to the perfusion tank. A positive pressure was applied to the electrode. The tip of the electrode touched the cell. The three-way valve of the air extracting device was adjusted to a three-way state. A negative pressure was applied to the electrode, so that a high-resistance seal was formed between the electrode and the cell.
The negative pressure was applied continuously, thereby causing the cell membrane to rupture and forming a current path.
3) After the current for rupturing the cell membrane became stable, perfusion of different concentrations was carried out in sequence. Once the current was stable for at least one minute, perfusion of the next concentration was carried out.
4) The perfusion tank was cleaned. The perfusion tank was rinsed with the drug solutions in order from high to low concentration, and the rinse duration for each concentration of drug solution was 20 seconds. The perfusion tank was finally rinsed with the extracellular fluid for 1 minute.
The cell was clamped at −80 mV. The cell was depolarized to 10 mV with a square wave lasting 10 milliseconds to obtain the Nav1.8 current. This procedure was repeated every 5 seconds. The maximum current caused by the square wave was measured. After the current became stable, the test compound was perfused. After the response became stable, the blocking intensity was calculated.
The data was stored in the computer system for analysis. Data collection and analysis were carried out by pCLAMP 10 (Molecular Devices, Union City, Calif.), and the analysis results were reviewed by the administrator. Stable current means that the current changes within a limited range over time. The magnitude of stable current was used to calculate the effect of the compound at the concentration.

T1 sequence (Q9Y5Y9 whole entry): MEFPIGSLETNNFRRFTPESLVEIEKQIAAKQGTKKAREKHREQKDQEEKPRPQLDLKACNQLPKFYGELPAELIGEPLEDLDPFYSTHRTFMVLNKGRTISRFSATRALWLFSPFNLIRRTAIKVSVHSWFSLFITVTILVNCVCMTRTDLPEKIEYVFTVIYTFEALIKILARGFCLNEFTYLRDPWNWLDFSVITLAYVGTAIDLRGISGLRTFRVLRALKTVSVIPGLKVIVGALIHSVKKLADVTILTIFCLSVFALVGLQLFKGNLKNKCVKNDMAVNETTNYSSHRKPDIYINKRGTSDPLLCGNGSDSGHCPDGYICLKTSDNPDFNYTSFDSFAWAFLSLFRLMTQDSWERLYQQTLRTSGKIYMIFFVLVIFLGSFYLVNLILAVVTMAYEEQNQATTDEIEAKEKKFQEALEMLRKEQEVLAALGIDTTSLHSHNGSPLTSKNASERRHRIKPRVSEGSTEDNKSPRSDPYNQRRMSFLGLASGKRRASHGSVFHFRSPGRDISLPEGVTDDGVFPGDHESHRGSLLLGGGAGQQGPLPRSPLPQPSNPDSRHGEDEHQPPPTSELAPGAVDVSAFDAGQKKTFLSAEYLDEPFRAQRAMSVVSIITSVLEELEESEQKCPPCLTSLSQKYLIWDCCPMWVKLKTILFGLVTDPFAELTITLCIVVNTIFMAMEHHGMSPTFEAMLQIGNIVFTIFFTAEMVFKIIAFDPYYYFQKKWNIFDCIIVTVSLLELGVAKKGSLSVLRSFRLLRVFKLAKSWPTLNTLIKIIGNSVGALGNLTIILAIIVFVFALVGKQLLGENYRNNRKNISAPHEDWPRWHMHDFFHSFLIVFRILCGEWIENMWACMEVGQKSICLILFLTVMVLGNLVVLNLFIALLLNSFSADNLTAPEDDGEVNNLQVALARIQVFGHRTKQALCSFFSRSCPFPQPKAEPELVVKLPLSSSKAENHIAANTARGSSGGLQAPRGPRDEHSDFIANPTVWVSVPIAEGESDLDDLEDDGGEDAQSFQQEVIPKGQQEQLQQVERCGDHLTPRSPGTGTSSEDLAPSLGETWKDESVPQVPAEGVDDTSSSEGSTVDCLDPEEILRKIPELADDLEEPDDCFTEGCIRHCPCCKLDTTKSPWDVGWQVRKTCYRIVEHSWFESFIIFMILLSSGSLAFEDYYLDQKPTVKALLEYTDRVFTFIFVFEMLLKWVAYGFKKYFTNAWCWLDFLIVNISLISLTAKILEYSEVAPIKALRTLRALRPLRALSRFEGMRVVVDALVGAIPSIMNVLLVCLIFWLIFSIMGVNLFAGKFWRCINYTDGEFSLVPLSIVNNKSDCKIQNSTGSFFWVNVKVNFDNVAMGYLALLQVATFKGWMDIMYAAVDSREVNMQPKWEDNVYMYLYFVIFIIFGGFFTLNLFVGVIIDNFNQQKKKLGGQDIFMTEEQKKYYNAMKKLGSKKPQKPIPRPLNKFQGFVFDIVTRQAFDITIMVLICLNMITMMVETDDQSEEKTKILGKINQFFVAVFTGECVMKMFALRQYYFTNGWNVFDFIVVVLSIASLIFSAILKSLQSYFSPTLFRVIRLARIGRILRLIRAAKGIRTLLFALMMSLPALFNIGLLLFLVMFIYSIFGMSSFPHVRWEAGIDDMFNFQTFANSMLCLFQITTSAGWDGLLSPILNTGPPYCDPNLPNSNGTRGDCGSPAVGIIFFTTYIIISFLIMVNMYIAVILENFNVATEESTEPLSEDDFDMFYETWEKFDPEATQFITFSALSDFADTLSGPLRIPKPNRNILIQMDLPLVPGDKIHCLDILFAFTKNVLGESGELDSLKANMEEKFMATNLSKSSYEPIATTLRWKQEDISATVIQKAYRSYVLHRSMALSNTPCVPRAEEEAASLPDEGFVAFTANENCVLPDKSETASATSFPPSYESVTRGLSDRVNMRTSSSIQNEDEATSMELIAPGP

| SMILES | IC50 [nM] |
| --- | --- |
| COc1cc(F)ccc1Oc1cc(Cl)c(Cl)cc1C(=O)Nc1cn[nH]c(=O)c1 [Example 1, 4,5-Dichloro-2-(4-fluoro-2-methoxyphenoxy)-N-(6-oxo-1,6-dihydropyridazin-4-yl)benzamide] | 1.6 |
| Cc1cc(F)ccc1Oc1cc(Cl)c(Cl)cc1C(=O)Nc1cn[nH]c(=O)c1 [Example 3, 4,5-Dichloro-2-(4-fluoro-2-methylphenoxy)-N-(6-oxo-1,6-dihydropyridazin-4-yl)benzamide] | 3.3 |
| O=C(Nc1cn[nH]c(=O)c1)c1cc(Cl)c(Cl)cc1Oc1ccc(F)cc1 [Example 4, 4,5-Dichloro-2-(4-fluorophenoxy)-N-(6-oxo-1,6-dihydropyridazin-4-yl)benzamide] | 14.1 |
| Cc1cc(F)ccc1Oc1cc(C(F)(F)C(F)(F)F)ccc1C(=O)Nc1cn[nH]c(=O)c1 [Example 5, 2-(4-Fluoro-2-methylphenoxy)-N-(6-oxo-1,6-dihydropyridazin-4-yl)-4-(perfluoroethyl)benzamide] | 23.7 |
| Cc1cc(OC(F)(F)F)ccc1Oc1cc(C(F)(F)F)ccc1C(=O)Nc1cn[nH]c(=O)c1 [Example 6, 2-(2-Methyl-4-(trifluoromethoxy)phenoxy)-N-(6-oxo-1,6-dihydropyridazin-4-yl)-4-(trifluoromethyl)benzamide] | 24.4 |
| Cc1cc(F)ccc1Oc1ccc(C(F)(F)F)cc1C(=O)Nc1cn[nH]c(=O)c1 [Example 7, 2-(4-Fluoro-2-methylphenoxy)-N-(6-oxo-1,6-dihydropyridazin-4-yl)-5-(trifluoromethyl)benzamide] | 30.8 |
| COc1cc(F)ccc1Oc1cc(C(F)(F)F)ccc1C(=O)Nc1cn[nH]c(=O)c1 [Example 8, 2-(4-Fluoro-2-methoxyphenoxy)-N-(6-oxo-1,6-dihydropyridazin-4-yl)-4-(trifluoromethyl)benzamide] | 45.8 |
| Cc1cc(F)ccc1Oc1cc(C(F)(F)F)ccc1C(=O)Nc1cn[nH]c(=O)c1 [Example 9, 2-(4-Fluoro-2-methylphenoxy)-N-(6-oxo-1,6-dihydropyridazin-4-yl)-4-(trifluoromethyl)benzamide] | 83.4 |
| Cc1cc(F)ccc1Cc1cc(C(F)(F)F)c(Cl)cc1C(=O)Nc1cn[nH]c(=O)c1 [Example 13, 5-Chloro-2-(4-fluoro-2-methylbenzyl)-N-(6-oxo-1,6-dihydropyridazin-4-yl)-4-(trifluoromethyl)benzamide] | 2.3 |
| O=C(Nc1cn[nH]c(=O)c1)c1cc(Cl)c(C(F)(F)F)cc1Oc1ccc(OC(F)(F)F)cc1F [Example 14, 5-Chloro-2-(2-fluoro-4-(trifluoromethoxy)phenoxy)-N-(6-oxo-1,6-dihydropyridazin-4-yl)-4-(trifluoromethyl)benzamide] | 2.5 |
| COc1cc(F)ccc1Oc1ccc(C(F)(F)F)cc1C(=O)Nc1cn[nH]c(=O)c1 [Example 16, 2-(4-Fluoro-2-methoxyphenoxy)-N-(6-oxo-1,6-dihydropyridazin-4-yl)-5-(trifluoromethyl)benzamide] | 17.9 |
| COc1cc(F)ccc1Sc1cc(C(F)(F)F)c(Cl)cc1C(=O)Nc1cn[nH]c(=O)c1 [Example 17, 5-Chloro-2-((4-fluoro-2-methoxyphenyl)thio)-N-(6-oxo-1,6-dihydropyridazin-4-yl)-4-(trifluoromethyl)benzamide] | 18 |
| COc1cc(F)ccc1Oc1cc(Cl)c(F)cc1C(=O)Nc1cn[nH]c(=O)c1 [Example 18, 4-Chloro-5-fluoro-2-(4-fluoro-2-methoxyphenoxy)-N-(6-oxo-1,6-dihydropyridazin-4-yl)benzamide] | 22.2 |
| Cc1cc(F)ccc1Oc1cc(Cl)c(F)cc1C(=O)Nc1cn[nH]c(=O)c1 [Example 19, 4-Chloro-5-fluoro-2-(4-fluoro-2-methylphenoxy)-N-(6-oxo-1,6-dihydropyridazin-4-yl)benzamide] | 31.7 |
| Cc1cc(F)ccc1Oc1cc(Cl)ccc1C(=O)Nc1cn[nH]c(=O)c1 [Example 20, 4-Chloro-2-(4-fluoro-2-methylphenoxy)-N-(6-oxo-1,6-dihydropyridazin-4-yl)benzamide] | 58.5 |
| COc1cc(F)ccc1Oc1cc(Cl)ccc1C(=O)Nc1cn[nH]c(=O)c1 [Example 21, 4-Chloro-2-(4-fluoro-2-methoxyphenoxy)-N-(6-oxo-1,6-dihydropyridazin-4-yl)benzamide] | 59.4 |
| COc1cc(F)ccc1Oc1ccc(OC(F)(F)F)cc1C(=O)Nc1cn[nH]c(=O)c1 [Example 22, 2-(4-Fluoro-2-methoxyphenoxy)-N-(6-oxo-1,6-dihydropyridazin-4-yl)-5-(trifluoromethoxy)benzamide] | 87.8 |
| Cc1cc(F)ccc1Oc1ccc(Cl)cc1C(=O)Nc1cn[nH]c(=O)c1 [Example 23, 5-Chloro-2-(4-fluoro-2-methylphenoxy)-N-(6-oxo-1,6-dihydropyridazin-4-yl)benzamide] | 92.3 |
| Cc1cc(F)ccc1Oc1cc(Cl)c(C(F)(F)F)cc1C(=O)Nc1cn[nH]c(=O)c1 [Example 27, 4-Chloro-2-(4-fluoro-2-methylphenoxy)-N-(6-oxo-1,6-dihydropyridazin-4-yl)-5-(trifluoromethyl)benzamide] | 5.7 |
| Cc1cc(Oc2ccc(F)cc2C)c(C(=O)Nc2cn[nH]c(=O)c2)cc1Cl [Example 28, 5-Chloro-2-(4-fluoro-2-methylphenoxy)-4-methyl-N-(6-oxo-1,6-dihydropyridazin-4-yl)benzamide] | 5.2 |
| Cc1cc(F)ccc1Oc1cc(C(F)(F)F)cc(C(F)(F)F)c1C(=O)Nc1cn[nH]c(=O)c1 [Example 29, 2-(4-Fluoro-2-methylphenoxy)-N-(6-oxo-1,6-dihydropyridazin-4-yl)-4,6-bis(trifluoromethyl)benzamide] | 90.4 |
| Cc1ccccc1Oc1cc(C(F)(F)F)c(Cl)cc1C(=O)Nc1cn[nH]c(=O)c1 [Example 30, 5-Chloro-N-(6-oxo-1,6-dihydropyridazin-4-yl)-2-(o-tolyloxy)-4-(trifluoromethyl)benzamide] | 16.2 |
| CCOc1cc(F)ccc1Oc1cc(C(F)(F)F)c(Cl)cc1C(=O)Nc1cn[nH]c(=O)c1 [Example 32, 5-Chloro-2-(2-ethoxy-4-fluorophenoxy)-N-(6-oxo-1,6-dihydropyridazin-4-yl)-4-(trifluoromethyl)benzamide] | 0.37 |
| Cc1cc(F)ccc1Oc1cc(C(F)(F)F)c(C)cc1C(=O)Nc1cn[nH]c(=O)c1 [Example 34, 2-(4-Fluoro-2-methylphenoxy)-5-methyl-N-(6-oxo-1,6-dihydropyridazin-4-yl)-4-(trifluoromethyl)benzamide] | 11.5 |
| CCc1cc(F)ccc1Oc1cc(C(F)(F)F)c(Cl)cc1C(=O)Nc1cn[nH]c(=O)c1 [Example 36, 5-Chloro-2-(2-ethyl-4-fluorophenoxy)-N-(6-oxo-1,6-dihydropyridazin-4-yl)-4-(trifluoromethyl)benzamide] | 1.54 |
| O=C(Nc1cn[nH]c(=O)c1)c1cc(Cl)c(C(F)(F)F)cc1Oc1ccc(F)cc1OC(F)F [Example 37, 5-Chloro-2-(2-(difluoromethoxy)-4-fluorophenoxy)-N-(6-oxo-1,6-dihydropyridazin-4-yl)-4-(trifluoromethyl)benzamide] | 2.38 |
| O=C(Nc1cn[nH]c(=O)c1)c1cc(Cl)c(C(F)(F)F)cc1Oc1ccc(F)c2c1CCC2 [Example 39, 5-Chloro-2-((7-fluoro-2,3-dihydro-1H-inden-4-yl)oxy)-N-(6-oxo-1,6-dihydropyridazin-4-yl)-4-(trifluoromethyl)benzamide] | 0.24 |
| O=C(Nc1cn[nH]c(=O)c1)c1cc(Cl)c(C(F)(F)F)cc1Oc1ccc(F)cc1OC1CCCC1 [Example 40, 5-Chloro-2-(2-(cyclopentyloxy)-4-fluorophenoxy)-N-(6-oxo-1,6-dihydropyridazin-4-yl)-4-(trifluoromethyl)benzamide] | 0.32 |
| O=C(Nc1cn[nH]c(=O)c1)c1cc(Cl)c(C(F)(F)F)cc1Oc1ccc(F)cc1OC1CCC1 [Example 41, 5-Chloro-2-(2-cyclobutoxy-4-fluorophenoxy)-N-(6-oxo-1,6-dihydropyridazin-4-yl)-4-(trifluoromethyl)benzamide] | 1.86 |
| CC(C)Oc1cc(F)ccc1Oc1cc(C(F)(F)F)c(Cl)cc1C(=O)Nc1cn[nH]c(=O)c1 [Example 42] | 2.98 |
